Patent US9133207B2, “Tetrandrine derivatives with substituted 5-carbon, preparation method and use thereof” (Hangzhou Bensheng Pharmaceutical Co., Ltd., priority 2011, dated 2015)
Converted amounts (≈) assume the structure as drawn.

Key:
[1] = tested on: Huh7 (human liver cancer cell); test: Solid tumor cell growth inhibition, MTT, 72 h (Example 7); format: cell-based; details: Homo sapiens; 72 h, MTT, Huh-7
Procedure: (§1) Human solid tumor cell lines: Hep-2 (laryngeal carcinoma), A549 (human lung cancer), CaES-17 (esophageal cancer cell), PC-3 (prostate cancer), CNE (nasopharyngeal carcinoma cell) and SK-OV-3 (ovarian cancer cell), all of which are purchased from China Center For Type Culture Collection; RKO (human colon adenocarcinoma cell), MGC 803 (human gastric cancer cell), MG63 (osteosarcoma), and U87 MG (malignant glioma cell), all of which are purchased from Fuxiang Bio-tech Co. Ltd., Shanghai, China; PANC-1 (pancreatic cancer), Huh? (human liver cancer cell), Becap37 (human breast cancer cell), and Hela (human cervical cancer cell), all of which are donated by Cancer Research Institute of Zhejiang University, China.
(§2) Reagents: the same as in Example 5.
(§3) Obtaining 4000 well-growing human solid tumor cells and inoculating them into wells of a 96-well cell culture plate. The culture medium is DMEM High Glucose cell culture medium containing 10% fetal bovine serum. The plate is placed in a carbon dioxide cell incubator (5% CO2) at 37° C. and incubated for 24 hours. After been added with tetrandrine derivatives of different concentration and mixing uniformly, the plate is placed in a carbon dioxide cell incubator (5% CO2) at 37° C. and incubated for 72 hours. Then the viable cell concentration is determined by the MTT method and the cell viability (%) after drug treatment is calculated. In this experiment, the cell viability of control group (not treated with any compound) is set as 100%.

[2] = tested on: A549 (human lung cancer); test: as above; format: cell-based; details: Homo sapiens; 72 h, MTT, A549
Procedure: as §1, §2, §3

[3] = tested on: RKO (human colon adenocarcinoma cell); test: as above; format: cell-based; details: Homo sapiens; 72 h, MTT, RKO
Procedure: as §1, §2, §3

[4] = tested on: Becap37 (human breast cancer cell); test: as above; format: cell-based; details: Homo sapiens; 72 h, MTT, Becap-37
Procedure: as §1, §2, §3

[5] = tested on: MGC 803 (human gastric cancer cell); test: as above; format: cell-based; details: Homo sapiens
Procedure: as §1, §2, §3

[6] = tested on: PC-3 (prostate cancer); test: as above; format: cell-based, human; details: Homo sapiens; 72 h, MTT, PC-3
Procedure: as §1, §2, §3

[7] = tested on: CaES-17 (esophageal cancer cell); test: as above; format: cell-based, human; details: Homo sapiens, CaEs17; 72 h, MTT, CAES-17
Procedure: as §1, §2, §3

[8] = tested on: PANC-1 (pancreatic cancer); test: as above; format: cell-based, human; details: Homo sapiens; 72 h, MTT, PANC-1
Procedure: as §1, §2, §3

[9] = tested on: MG63 (osteosarcoma); test: as above; format: cell-based, human; details: Homo sapiens; 72 h, MTT, MG-63
Procedure: as §1, §2, §3

[10] = tested on: RPMI8226 (multiple myeloma); test: Multiple myeloma cell growth inhibition, MTT, 72 h (Example 6); format: cell-based, human; details: Homo sapiens, RPMI-8226; 72 h, MTT, RPMI8226
Procedure: Multiple myeloma and lymphoma cell lines: RPMI8226 (multiple myeloma), purchased from Fuxiang Bio-tech Co. Ltd., Shanghai, China.
as §2
(§4) Obtaining 6000 well-growing leukemia cells and inoculating them into wells of a 96-well cell culture plate. The culture medium is a 1640 cell culture medium containing 10% fetal bovine serum. After adding the tetrandrine derivatives of different concentrations and mixing uniformly, placing the plate in a carbon dioxide cell incubator (5% CO2) at 37° C. and incubated for 72 hours. Then the viable cell concentration is determined by the MTT method.

[11] = tested on: K562/adr (drug-resistant, chronic myeloid leukemia, CML); test: Leukemia cell growth inhibition, MTT, 72 h (Example 5); format: cell-based, human; details: Homo sapiens, K562/Adr; 72 h, MTT
Excerpt: (§5) Leukemia cell lines: leukemia cell lines: K562/adr (drug-resistant, chronic myeloid leukemia, CML), NB4 (acute promyelocytic leukemia, AML), Kasumi-1 (acute myeloid leukemia M2 type, AML-M2), Jurkat (acute lymphoblastic leukemia, ALL), all of which are donated by Cancer Research Institute of Zhejiang University, China; and H9 (acute lymphoblastic leukemia, ALL), which is purchased from China Center for Type Culture Collection.
(§6) Reagents: The standard sample of tetrandrine (TTD) is purchased from Ci Yuan Biotechnology Co., Ltd., Shaanxi, China; and the 5-substituted tetrandrine derivatives of the present invention.
as §4, with “incubating” for “incubated”

[12] = tested on: Kasumi-1 (acute myeloid leukemia M2 type, AML-M2); test: as above; format: cell-based, human; details: Homo sapiens, Kasumi 1
Excerpt: as §5, §6
as §4, with “incubating” for “incubated”

[13] = tested on: NB4 (acute promyelocytic leukemia, AML); test: as above; format: cell-based, human; details: Homo sapiens; 72 h, MTT
Excerpt: as §5, §6
as §4, with “incubating” for “incubated”

[14] = tested on: H9 (acute lymphoblastic leukemia, ALL); test: as above; format: cell-based, human; details: Homo sapiens; 72 h, MTT
Excerpt: as §5, §6
as §4, with “incubating” for “incubated”

[15] = tested on: Jurkat (acute lymphoblastic leukemia, ALL); test: as above; format: cell-based, human; details: Homo sapiens, Jurkat; 72 h, MTT
Excerpt: as §5, §6
as §4, with “incubating” for “incubated”

IC50 [1] | IC90 [1] | IC50 [2] | IC90 [2] | IC50 [3] | IC90 [3] | IC50 [4] | IC90 [4] | IC50 [5] | IC90 [5] | IC50 [6] | IC90 [6] | IC50 [7] | IC90 [7] | IC50 [8] | IC90 [8] | IC50 [9] | IC90 [9] | IC50 [10] | IC90 [10] | Structure (SMILES) | further results
4.14 µg/mL (≈ 5.96 µM) | 7.97 µg/mL (≈ 11.5 µM) | 4.45 µg/mL (≈ 6.4 µM) | 14.2 µg/mL (≈ 20.4 µM) | 4.23 µg/mL (≈ 6.09 µM) | 7.5 µg/mL (≈ 10.8 µM) | 6.77 µg/mL (≈ 9.74 µM) | 15 µg/mL (≈ 21.6 µM) | 3.54 µg/mL (≈ 5.09 µM) | 38.1 µg/mL (≈ 54.8 µM) | 5.6 µg/mL (≈ 8.06 µM) | 28 µg/mL (≈ 40.3 µM) | 9.8 µg/mL (≈ 14.1 µM) | 37.5 µg/mL (≈ 54 µM) | 10.7 µg/mL (≈ 15.4 µM) | 16 µg/mL (≈ 23 µM) | 5.13 µg/mL (≈ 7.38 µM) | 7.64 µg/mL (≈ 11 µM) | 0.23 µg/mL (≈ 0.331 µM) | 2.29 µg/mL (≈ 3.3 µM) | COc1ccc2cc1Oc1ccc(cc1)C[C@H]1c3cc(c(OC)cc3CCN1C)Oc1c(OC)c(OC)c(COC(C)=O)c3c1[C@H](C2)N(C)CC3 [BS-TE-223] | IC50 [11]: 0.5 µg/mL (≈ 0.72 µM); IC90 [11]: 9.91 µg/mL (≈ 14.3 µM); IC50 [12]: 2 µg/mL (≈ 2.88 µM); IC90 [12]: 8 µg/mL (≈ 11.5 µM); IC50 [13]: 2.57 µg/mL (≈ 3.7 µM); IC90 [13]: 7.42 µg/mL (≈ 10.7 µM); IC50 [14]: 4.19 µg/mL (≈ 6.03 µM); IC90 [14]: 8.89 µg/mL (≈ 12.8 µM); IC50 [15]: 3.42 µg/mL (≈ 4.92 µM); IC90 [15]: 11.3 µg/mL (≈ 16.2 µM)
3 µg/mL (≈ 4.16 µM) | 4.9 µg/mL (≈ 6.79 µM) | 2.3 µg/mL (≈ 3.19 µM) | 8 µg/mL (≈ 11.1 µM) | 0.95 µg/mL (≈ 1.32 µM) | 3.27 µg/mL (≈ 4.53 µM) | 1.79 µg/mL (≈ 2.48 µM) | 6.94 µg/mL (≈ 9.61 µM) | 3.74 µg/mL (≈ 5.18 µM) | 14.1 µg/mL (≈ 19.6 µM) | 2.88 µg/mL (≈ 3.99 µM) | 6.99 µg/mL (≈ 9.68 µM) | 1.1 µg/mL (≈ 1.52 µM) | 18.8 µg/mL (≈ 26.1 µM) | 3.47 µg/mL (≈ 4.81 µM) | 8.88 µg/mL (≈ 12.3 µM) | 0.82 µg/mL (≈ 1.14 µM) | 2.32 µg/mL (≈ 3.21 µM) | 0.07 µg/mL (≈ 0.097 µM) | 0.42 µg/mL (≈ 0.582 µM) | COc1ccc2cc1Oc1ccc(cc1)C[C@H]1c3cc(c(OC)cc3CCN1C)Oc1c(OC)c(OC)c(CN3CCOCC3)c3c1[C@H](C2)N(C)CC3 [BS-TE-307] | IC50 [11]: 0.25 µg/mL (≈ 0.346 µM); IC90 [11]: 7.8 µg/mL (≈ 10.8 µM); IC50 [12]: 1 µg/mL (≈ 1.39 µM); IC90 [12]: 4.79 µg/mL (≈ 6.64 µM); IC50 [13]: 0.73 µg/mL (≈ 1.01 µM); IC90 [13]: 4.35 µg/mL (≈ 6.03 µM); IC50 [14]: 0.87 µg/mL (≈ 1.21 µM); IC90 [14]: 1.99 µg/mL (≈ 2.76 µM); IC50 [15]: 3.08 µg/mL (≈ 4.27 µM); IC90 [15]: 13.2 µg/mL (≈ 18.4 µM)
1.42 µg/mL (≈ 1.97 µM) | 1.94 µg/mL (≈ 2.69 µM) | 1.83 µg/mL (≈ 2.53 µM) | 6.34 µg/mL (≈ 8.78 µM) | 0.9 µg/mL (≈ 1.25 µM) | 2.4 µg/mL (≈ 3.32 µM) | 2.31 µg/mL (≈ 3.2 µM) | 4 µg/mL (≈ 5.54 µM) | 2.29 µg/mL (≈ 3.17 µM) | > 10 µg/mL | 2.26 µg/mL (≈ 3.13 µM) | 4.06 µg/mL (≈ 5.62 µM) | 1.58 µg/mL (≈ 2.19 µM) | 9.61 µg/mL (≈ 13.3 µM) | 3.29 µg/mL (≈ 4.56 µM) | 5.41 µg/mL (≈ 7.49 µM) | 1 µg/mL (≈ 1.39 µM) | 2.24 µg/mL (≈ 3.1 µM) | 0.14 µg/mL (≈ 0.194 µM) | 0.7 µg/mL (≈ 0.97 µM) | COc1ccc2cc1Oc1ccc(cc1)C[C@H]1c3cc(c(OC)cc3CCN1C)Oc1c(OC)c(OC)c(CN3CCC(O)C3)c3c1[C@H](C2)N(C)CC3 (stereo partly drawn) [BS-TE-322] | IC50 [11]: 1.1 µg/mL (≈ 1.52 µM); IC90 [11]: 3.24 µg/mL (≈ 4.49 µM); IC50 [12]: 1.22 µg/mL (≈ 1.69 µM); IC90 [12]: 3.83 µg/mL (≈ 5.31 µM); IC50 [13]: 0.83 µg/mL (≈ 1.15 µM); IC90 [13]: 3.48 µg/mL (≈ 4.82 µM); IC50 [14]: 1.08 µg/mL (≈ 1.5 µM); IC90 [14]: 2.19 µg/mL (≈ 3.03 µM); IC50 [15]: 1.67 µg/mL (≈ 2.31 µM); IC90 [15]: 3.97 µg/mL (≈ 5.5 µM)
